Literature values in patent US20040024065A1, “Novel metabolic targets and markers” (priority 2002, published 2004).

What was measured:
rat hepatocytes = rat hepatocytes incubated with inhibitor
PEMT = conditions: alcohol consumption, before the development of cirrhosis

**Q.** With `Nc1nccc2c1ncn2[C@@H]1O[C@H](CO)[C@@H](O)[C@H]1O` [3-deazaadenosine] as the compound, how does the “PC synthesis via methylation of PE derived from ethanolamine, inhibited” value (rat hepatocytes) read?
**A.** more than 95%

**Q.** And the “amount of PE in the cells” value (rat hepatocytes)?
**A.** doubled

**Q.** What about the “amount of PE secreted into the medium, increase” value (rat hepatocytes) of the same compound?
**A.** 70%

**Q.** What about the “secretion of the apoproteins into VLDL, LDL, HDL fractions or fraction with density greater than 1.18 g/ml” value (rat hepatocytes) of the same compound?
**A.** not affected

**Q.** With `CCO` [alcohol] as the compound, how does the “activity of PEMT” value (PEMT) read?
**A.** depresses
